Assay results taken from patent publication US10632064B2, “Topical regional neuro affective therapy with cannabinoid combination products” (Afgin Pharma, LLC, priority 2015, dated 2020).
Values joined by “and” are separate entries in the source; they are usually repeats but may differ in a detail not shown here. Equal values may be shown once. “Also recorded” adds a separate entry of the source.

Columns and labels:
human patients = experiment: Example 5: topical cannabidiol (CBD) formulation on the back of the neck, 40 mg dose, patient cases (Table 1); type: in vivo
Procedure: The following patients were treated with a topical cannabidiol (CBD) formulation administered on the back of the neck on human patients at a 40 mg dose, as more specifically described below in Table 1: […]

[1] = test system: human patient with episodic severe post-operative neuralgic head pain; experiment: Example 6: topical cannabidiol 40 mg at the BONATH, post-operative neuralgic head pain, EEG; type: in vivo
Procedure: The efficacy of a topical cannabidiol formulation was studied in a human patient (s/p resection right clival meningioma) suffering from episodic severe post-operative neuralgic head pain suffering from severe right-sided neuralgic head pain every 15-20 seconds. The patient was treated with cannabidiol 40 mg applied to the BONATH in a topical formulation. There was attenuation of associated focal EEG abnormalities. […] The neuralgic head pain was less severe by about 50% (frequency decreased to every 2-5 minutes).

[2] = test system: human patient having a remote head injury, s/p 4 craniotomies and intractable seizures; experiment: Example 7: topical cannabidiol 40 mg at the BONATH, intractable seizures, EEG; type: in vivo; settings: cannabidiol 40 mg topical at BONATH
Procedure: The efficacy of a topical cannabidiol formulation was studied in a human patient having a remote head injury, s/p 4 craniotomies and intractable seizures. The patient was treated with cannabidiol 40 mg applied to the BONATH in a topical formulation. There was attenuation of associated focal EEG abnormalities.

[3] = test system: patients having a variety of conditions; experiment: Example 18: topical CBD cream compounded from crystalline powder (Table 7); type: in vivo, human; settings: 1% topical CBD; single patients
Procedure: The CBD was compounded in crystalline powder form rather than in CBD-oil form into the topical cream. The doses were 7.5 mg (0.75% topical CBD cream), 10 mg (1% topical CBD cream), 15 mg (1.5% topical CBD cream) or 20 mg (2% topical CBD cream).

[4] = test system: patients having acute and chronic neurological and psychiatric conditions; experiment: Example 12: topical CBD from crystalline powder (Table 6); type: in vivo, human
Procedure: In Example 12, 19 patients having acute and chronic neurological and psychiatric conditions were treated with topical CBD at the back of the neck. The treatment comprised a dose of either 15 mg or 30 mg cannabinoid drugs, with the majority being CBD, the source of the CBD being CBD crystalline powder oil commercially available from CannaVest.

[5] = test system: patient with stroke and focal seizures; experiment: Example 16: 1 g of 1.6% CBD cream nuchal, stroke and focal seizures, EEG; type: in vivo, human
Procedure: In Example 16, a patient presented with stroke and focal seizures. […]. FIG. 9 is a baseline EEG taken at the initial examination, showing left fronto-central seizure focus.
The patient was treated with 1 g of 1.6% CBD cream to the nuchal (back of the neck). […] They were able to return to work as a beterinarian and do surgery, which was unexpected as their Rehab MD had previously advised them that we would have to retire.

[6] = test system: person, cerebellar posterior fossa cyst, generalized seizure; experiment: Example 13: 2% CBD cream to the nuchal region, absence seizures, EEG; type: in vivo, human
Procedure: In Example 13, person suffering from a cerebellar posterior fossa cyst, generalized seizure manifesting as standing and staring and unresponsive was treating in accordance with the present invention. FIG. 2 is an EEG showing a baseline EEG of the patient of Example 13. […] Previously, ethosuximide had been recommended for treatment, but the parents were reluctant to have the patient on a systemic […] therapy in view of the potential side effects. The patient was treated with a 2% CBD cream to the nuchal (back of the neck) region twice a day. After two weeks, the dosage regimen was changed to one application per day.

[7] = test system: patient with atonic seizures; experiment: Example 17: 1 g of 1.6% CBD cream nuchal, atonic seizures, EEG; type: in vivo, human
Procedure: In Example 17, a patient presented with atonic seizures. The patient would suddenly freeze and fall down (e.g., riding a bike, at school, etc.). FIG. 11 is a baseline EEG taken at the initial examination, showing cortical irritability on the left central region c/w potential for seizures.
The patient was treated with 1 g of 1.6% CBD cream to the nuchal (back of the neck). […] FIG. 13 is a brain MRI of the patient showing a left thalamic hamartoma, a benign developmental process, likely irritating the brain and causing their seizures.

[8] = test system: patients having headaches and neck pain; experiment: Example 9: topical CBD at the back of the neck (Table 3); type: in vivo, human
Procedure: (§1) In Example 9, 13 patients having headaches and neck pain were treated with topical CBD at the back of the neck. The treatment comprised a dose of either 15 mg or 30 mg cannabinoid drugs, with the majority being CBD, the source of the CBD being CBD oil commercially available from CannaVest.

[9] = test system: patients having seizures, encephalopathy, and/or spasticity; experiment: Example 8: topical CBD at the back of the neck (Table 2); type: in vivo, human
Procedure: as §1, with “8, 34” for “9, 13”, “seizures, encephalopathy, and/or spasticity” for “headaches and neck pain”

[10] = test system: acute paranoid schizophrenia; settings: cited from earlier work
[11] = test system: patients having Parkinson's disease, tremors, or movement disorders; experiment: Example 11: topical CBD at the back of the neck (Table 5); type: in vivo, human
Procedure: as §1, with “11, 6” for “9, 13”, “Parkinson's disease, tremors, or movement disorders” for “headaches and neck pain”

[12] = cannabidiol 40 mg topical at BONATH
[13] = twice a day CBD treatment to the nuchal region

With `C=C(C)[C@@H]1CCC(C)=C[C@H]1c1c(O)cc(CCCCC)cc1O` [CBD, cannabidiol] the “time after topical CBD at which the effect was seen” value (“time after topical CBD” below) (human patients; 40 mg topical CBD on back of neck, single patients) was 10-15 minutes after nuchal and 15 minutes and within 15 minutes. and 10 minutes after topical CBD, and hand function within 15 minutes; and 20 minutes after 40 mg topical and 5 minutes after 40 mg topical and 5 minutes and 10-15 minutes after topical CBD,, the “anxiety level after nuchal topical CBD” value (human patients; 40 mg, person in panic attack, before 7-8 of 10) was “anxiety from 7-8 of 10 to 4 of 10” and the “time without freezing episodes after one dose” value (human patients; one dose of 40 mg topical CBD, Parkinson's patient with 10-12 freezing episodes per day) was “over 24 hours; also more”. The “EEG after nuchal administration” value [1, 12] was “attenuation of the right temporal waves to a more normal state”, the “duration of EEG improvement and clinical benefit” value [1, 12] was “The EEG improvement lasted several minutes, but the clinical benefit lasted several hours” and the “neuralgic head pain less severe” value [1, 12] was “about 50%”. For the same compound, the “frequency of neuralgic head pain after treatment (every ...)” value ([1]; cannabidiol 40 mg topical, before every 15-20 seconds) was 2 to 5 min, the EEG post-treatment [2] was “the right fast activity and sharp waves were attenuated” and the pain decrease [3] was 50%. For the same compound, the “result in words (Table 6)” value ([4]; 0.75% topical CBD to neck and 1% to back) was 1% to back with patient feeling more alert, the “time after application at which the effect was seen” value ([4]; 1% topical CBD to neck and back) was at most 1 min and the “result in words (Table 6)” value ([4]; 1% topical CBD, one patient per entry) was “became more alert and spontaneous; also recorded: spasticity improved with better movement of; also recorded: improved pain within three minutes. Stated; also recorded: worked better than oil-based CBD they had; also recorded: focus, clearer thinking, and reduced anxiety”. For the same compound, the pain decrease ([4]; 1% topical CBD, single patients) was 50% and pain 20% within a few minutes. and additional 30% from prior baseline, the “result in words (Table 6)” value ([4]; 1.5% topical (powdered) CBD cream) was 1.5% topical CBD reduced neck tension and relieved neuropathic pain. Had been using and relieved anxiety and improved demeanor and the “result in words (Table 6)” value ([4]; 2% topical CBD cream) was “relieved back and lower extremity; also recorded: relieved neck pain and tension from”. The “neck pain and tension level after treatment” value ([4]; 2% topical CBD cream to back of neck, from 8 of 10, in few minutes) was 8 of 10 to 2 in few minutes, the “EEG after CBD dose” value ([5]; 10 minutes after application of 1 g of 1.6% CBD cream (FIG. 10)) was “attenuated seizure focus” and the clinical result [5, 13] was “remains seizure free; also recorded: helping their spastic weakness from the stroke”. For the same compound, the “time seizure free after initiation of treatment” value [5, 13] was “about 9 months”, the “clinical findings at the two week check-up” value ([6]; 2% CBD cream to nuchal region twice a day) was “No seizures were noted; also recorded: no long bed wetting; also recorded: reading levels had increased two levels” and the EEG post-treatment ([6]; 5 minutes after the start of therapy (FIG. 3)) was “attenuated seizure focus”. The EEG post-treatment ([6]; 8 minutes after the start of therapy (FIG. 4)) was “further attenuation of seizure focus”, the “EEG after CBD dose” value ([7]; 10 minutes after application of 1 g of 1.6% CBD cream (FIG. 12)) was “attenuated seizure focus” and the “seizure status on treatment” value ([7]; topical CBD nuchal since October 2015, only medication) was “seizure-free since initiating topical CBD therapy”. The “result after topical CBD, in words (Table 3)” value ([8]; 15 mg or 30 mg cannabinoid drugs (CBD oil) topical, one patient per entry) was “improved mobility and After week of daily use, headache free and calm, less anxious, and breathing easier. and Headache and neck pain resolved and Chronic daily headaches resolved after daily and Neck pain resolved and 2×/day with benefit for past 2 months. Injury and the neck, pain resolve and ROM improved and chronic headache and improved range and Pain resolved after several and All pain symptoms resolved after 3 weeks of”, the “right facial weakness and decreased sensation improved” value ([8]; Bell's palsy, CBD to back of neck and region of stylomastoid foramen) was 30% and the “pain (headache, neck, TMJ, back, thoracic) reduction” value ([8]; after topical CBD, single patients) was 50% and diminished 50% for the first time. Prescribed and Chronic back pain improved 30% and Thoracic pain reduced 30% within and Headaches and neck pain improved 30% with. For the same compound, the “ROM of neck improved” value ([8]; person, 5 minutes after topical CBD to the neck) was 80%. Will continue to use daily, the “time after topical CBD” value ([8]; single patients) was 5 minutes after topical CBD to back of neck, and 5-10 minutes and 5 minutes after topical CBD application to and ≤ 15 minutes and within 15 minutes after topical CBD and ≤ 10 minutes of topical CBD and the “time after topical CBD” value ([9]; 15 mg or 30 mg, back of neck, single patients) was 15 minutes after application of topical CBD and 10 minutes after topical CBD to back of and state within 10 minutes. and ≤ 15 minutes and 3 minutes after topical CBD application, and 30 minutes after topical CBD to back of. For the same compound, the seizure frequency reduced ([9]; after 2 months use, person with Aicardi syndrome, intractable seizures) was “reduced 60%. Prior doses of Lamicatal and”, the spasticity decrease/improvement ([9]; after one application/treatment of topical CBD to back of neck, single patients) was 80% and Severe baseline spasticity improved 70% and spasticity by 30% from baseline. and 30% reduction in spasticity in all 4 and the duration of effect ([9]; person s/p head injury, topical CBD to back of neck) was “lasted 8 hours. Now on 3×/day”. For the same compound, the psychotic symptoms ([10]; after 2 weeks) was “significant decrease in psychotic symptoms”, the side effects ([10]; compared with amisulpride) was “significantly fewer side effects” and the “result after topical CBD, in words (Table 5)” value ([11]; 15 mg or 30 mg cannabinoid drugs (CBD oil) at back of neck, one patient per entry) was “resolved festination/small steppage; also recorded: Facial twitching improved after”. The “time after topical CBD” value ([11]; single patients) was 15 minutes after one application and 10 minutes and 10 minutes after topical CBD appli- and 5 minutes; now using 3×/ day.
